Laboratory results as given in ChEMBL document CHEMBL1201862, “PubChem BioAssay data set” (2004).
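Cells were grown in 96-well plates and exposed to each compound for 48 hours at five concentrations; endpoints were interpolated linearly between bracketing concentrations, or set to the highest concentration if not reached. Abbreviation: GI50, concentration required for 50% inhibition of growth.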 Active and inactive are the calls of the source. Cut-off read from the data, not from the text of the source: active = GI50 up to about 1.1 µM and inactive = higher.

Columns and labels:
Assay in all cases: growth of human tumour cells (NCI), 48 h
LOX IMVI = tested on: LOX IMVI
CCRF-CEM = tested on: CCRF-CEM
U-251 = tested on: U-251
IGROV-1 = tested on: IGROV-1
SF-295 = tested on: SF-295
SNB-75 = tested on: SNB-75
UACC-62 = tested on: UACC-62
HCT-116 = tested on: HCT-116
MOLT-4 = tested on: MOLT-4
NCI-H23 = tested on: NCI-H23
NCI/ADR-RES = tested on: NCI/ADR-RES
SF-268 = tested on: SF-268
HCT-15 = tested on: HCT-15
NCI-H522 = tested on: NCI-H522
SK-MEL-28 = tested on: SK-MEL-28
SK-OV-3 = tested on: SK-OV-3
HT-29 = tested on: HT-29
COLO 205 = tested on: COLO 205
HOP-62 = tested on: HOP-62
HOP-92 = tested on: HOP-92
TK-10 = tested on: TK-10
MDA-N = tested on: MDA-N
HL-60 = tested on: HL-60
NCI-H460 = tested on: NCI-H460
NCI-H226 = tested on: NCI-H226
A549 = tested on: A549
Hs-578T = tested on: Hs-578T
SR = tested on: SR
BT-549 = tested on: BT-549
SK-MEL-2 = tested on: SK-MEL-2
UO-31 = tested on: UO-31
OVCAR-5 = tested on: OVCAR-5
RXF 393 = tested on: RXF 393
K562 = tested on: K562
SW-620 = tested on: SW-620
786-0 = tested on: 786-0
OVCAR-8 = tested on: OVCAR-8
SN12C = tested on: SN12C
OVCAR-4 = tested on: OVCAR-4
DU-145 = tested on: DU-145
CAKI-1 = tested on: CAKI-1
HCC 2998 = tested on: HCC 2998
T47D = tested on: T47D
RPMI-8226 = tested on: RPMI-8226
UACC-257 = tested on: UACC-257
SK-MEL-5 = tested on: SK-MEL-5
EKVX = tested on: EKVX
MCF7 = tested on: MCF7
KM12 = tested on: KM12
A498 = tested on: A498
SNB-19 = tested on: SNB-19
MDA-MB-435 = tested on: MDA-MB-435
MDA-MB-231 = tested on: MDA-MB-231
Malme-3M = tested on: Malme-3M
ACHN = tested on: ACHN
PC-3 = tested on: PC-3
M14 = tested on: M14

CCOC(=O)C1=c2[nH]c3cccc4cccc(c43)n2C(=O)CC1c1ccccc1 (configuration not stated)
GI50 (LOX IMVI): > 100 µM (inactive) | GI50 (CCRF-CEM): > 100 µM (inactive) | GI50 (U-251): > 100 µM (inactive) | GI50 (IGROV-1): > 100 µM (inactive) | GI50 (SF-295): > 100 µM (inactive) | GI50 (SNB-75): > 100 µM (inactive) | GI50 (UACC-62): > 100 µM (inactive) | GI50 (HCT-116): > 100 µM (inactive) | GI50 (MOLT-4): > 100 µM (inactive) | GI50 (NCI-H23): > 100 µM (inactive) | GI50 (NCI/ADR-RES): > 100 µM (inactive) | GI50 (SF-268): > 100 µM (inactive) | GI50 (HCT-15): > 100 µM | GI50 (NCI-H522): > 100 µM (inactive) | GI50 (SK-MEL-28): > 100 µM (inactive) | GI50 (SK-OV-3): > 100 µM (inactive) | GI50 (HT-29): > 100 µM (inactive) | GI50 (COLO 205): > 100 µM (inactive) | GI50 (HOP-62): > 100 µM (inactive) | GI50 (HOP-92): > 100 µM (inactive) | GI50 (TK-10): > 100 µM (inactive) | GI50 (MDA-N): > 100 µM (inactive) | GI50 (HL-60): 95.5 µM (inactive) | GI50 (NCI-H460): > 100 µM (inactive) | GI50 (NCI-H226): > 100 µM (inactive) | GI50 (A549): > 100 µM (inactive) | GI50 (Hs-578T): > 100 µM (inactive) | GI50 (SR): > 100 µM (inactive) | GI50 (BT-549): > 100 µM (inactive) | GI50 (SK-MEL-2): > 100 µM (inactive) | GI50 (UO-31): > 100 µM (inactive) | GI50 (OVCAR-5): > 100 µM (inactive) | GI50 (RXF 393): > 100 µM (inactive) | GI50 (K562): > 100 µM (inactive) | GI50 (SW-620): > 100 µM (inactive) | GI50 (786-0): > 100 µM (inactive) | GI50 (OVCAR-8): > 100 µM (inactive) | GI50 (SN12C): > 100 µM (inactive) | GI50 (OVCAR-4): > 100 µM (inactive) | GI50 (DU-145): > 100 µM (inactive) | GI50 (CAKI-1): > 100 µM (inactive) | GI50 (HCC 2998): > 100 µM (inactive) | GI50 (T47D): > 100 µM (inactive) | GI50 (RPMI-8226): > 100 µM (inactive) | GI50 (UACC-257): > 100 µM (inactive) | GI50 (SK-MEL-5): > 100 µM (inactive) | GI50 (EKVX): > 100 µM (inactive) | GI50 (MCF7): > 100 µM (inactive) | GI50 (KM12): > 100 µM (inactive) | GI50 (A498): > 100 µM (inactive) | GI50 (SNB-19): > 100 µM (inactive) | GI50 (MDA-MB-435): > 100 µM (inactive) | GI50 (MDA-MB-231): > 100 µM (inactive) | GI50 (Malme-3M): > 100 µM (inactive) | GI50 (ACHN): > 100 µM (inactive) | GI50 (PC-3): > 100 µM (inactive) | GI50 (M14): > 100 µM (inactive)
